Source: the NIST ThermoML archive (doi:10.1021/je300086w)
Numbers after ± are expanded uncertainties.

What was measured:
[1] = for viscosity / mass density: 101.33 kPa, Liquid; for mass density: Vibrating tube method; for Normal melting temperature: Crystal, AC calorimetry
[2] = refractive index (Na D-line) (dimensionless); conditions: 101.33 kPa, Liquid, Standard Abbe refractometry

SMILES	viscosity ([1]; 293.15 K)	mass density ([1]; 293.15 K)	viscosity ([1]; 298.15 K)	mass density ([1]; 298.15 K)	viscosity ([1]; 303.15 K)	mass density ([1]; 303.15 K)	viscosity ([1]; 308.15 K)	mass density ([1]; 308.15 K)	viscosity ([1]; 313.15 K)	mass density ([1]; 313.15 K)	viscosity ([1]; 318.15 K)	mass density ([1]; 318.15 K)	viscosity ([1]; 323.15 K)	mass density ([1]; 323.15 K)	viscosity ([1]; 328.15 K)	mass density ([1]; 328.15 K)	viscosity ([1]; 333.15 K)	mass density ([1]; 333.15 K)	viscosity ([1]; 338.15 K)	mass density ([1]; 338.15 K)	further results
CCCCCC(=O)[O-].C[N+](C)(C)CCO [2-hydroxy-N,N,N-trimethylethanaminium hexanoate]	929.2 ± 73 mPa·s	1018.8 ± 1 kg/m3	710.7 ± 51 mPa·s	1015.7 ± 1 kg/m3	530.4 ± 34 mPa·s	1012.5 ± 1 kg/m3	400.3 ± 23 mPa·s	1009.8 ± 1 kg/m3	298 ± 14 mPa·s	1006.8 ± 1 kg/m3	225.9 ± 9.3 mPa·s	1003.9 ± 1 kg/m3	175.3 ± 6 mPa·s	1001.3 ± 1 kg/m3	140.3 ± 4 mPa·s	998.4 ± 1 kg/m3	110.9 ± 2.5 mPa·s	995.5 ± 1 kg/m3	89.7 ± 1.5 mPa·s	992.6 ± 1 kg/m3	viscosity ([1]; 343.15 K): 73.7 ± 0.9 mPa·s; mass density ([1]; 343.15 K): 989.7 ± 1 kg/m3; viscosity ([1]; 348.15 K): 60.9 ± 0.6 mPa·s; mass density ([1]; 348.15 K): 986.8 ± 1 kg/m3; viscosity ([1]; 353.15 K): 51 ± 0.4 mPa·s; mass density ([1]; 353.15 K): 984 ± 1 kg/m3; refractive index ([2]; 293.15 K): 1.4726 ± 0.0004; refractive index ([2]; 298.15 K): 1.4709 ± 0.0004; refractive index ([2]; 303.15 K): 1.4692 ± 0.0004; refractive index ([2]; 308.15 K): 1.4675 ± 0.0004; refractive index ([2]; 313.15 K): 1.4658 ± 0.0004; refractive index ([2]; 318.15 K): 1.464 ± 0.0004; refractive index ([2]; 323.15 K): 1.4624 ± 0.0004; refractive index ([2]; 328.15 K): 1.4607 ± 0.0004; refractive index ([2]; 333.15 K): 1.459 ± 0.0004
CCC(=O)[O-].C[N+](C)(C)CCO [cholinium propanoate]	395.8 ± 22 mPa·s	1074.6 ± 1 kg/m3	290.2 ± 14 mPa·s	1071.5 ± 1 kg/m3	215.6 ± 8.6 mPa·s	1068.6 ± 1 kg/m3	163.2 ± 5.3 mPa·s	1065.7 ± 1 kg/m3	125.8 ± 3.2 mPa·s	1062.8 ± 1 kg/m3	98.5 ± 1.9 mPa·s	1060 ± 1 kg/m3	78.3 ± 1.1 mPa·s	1057.2 ± 1 kg/m3	63 ± 0.6 mPa·s	1054.3 ± 1 kg/m3	51.4 ± 0.4 mPa·s	1051.4 ± 1 kg/m3	42.4 ± 0.4 mPa·s	1048.6 ± 1 kg/m3	viscosity ([1]; 343.15 K): 35.4 ± 0.4 mPa·s; mass density ([1]; 343.15 K): 1045.8 ± 1 kg/m3; viscosity ([1]; 348.15 K): 29.8 ± 0.3 mPa·s; mass density ([1]; 348.15 K): 1042.9 ± 1 kg/m3; viscosity ([1]; 353.15 K): 25.4 ± 0.3 mPa·s; mass density ([1]; 353.15 K): 1040.1 ± 1 kg/m3; refractive index ([2]; 293.15 K): 1.4705 ± 0.0004; refractive index ([2]; 298.15 K): 1.4686 ± 0.0004; refractive index ([2]; 303.15 K): 1.4668 ± 0.0004; refractive index ([2]; 308.15 K): 1.465 ± 0.0004; refractive index ([2]; 313.15 K): 1.4631 ± 0.0004; refractive index ([2]; 318.15 K): 1.4611 ± 0.0004; refractive index ([2]; 323.15 K): 1.4592 ± 0.0004; refractive index ([2]; 328.15 K): 1.4573 ± 0.0004; refractive index ([2]; 333.15 K): 1.4555 ± 0.0004
CC(C)(C)C(=O)[O-].C[N+](C)(C)CCO [choline pivalate]																					Normal melting temperature [1]: 96.0 ± 1 °C
CC(=O)OCC[N+](C)(C)C [2-acetoxy-N,N,N-trimethylethanaminium]																					Normal melting temperature [1]: 72.0 ± 1 °C
CCCC(=O)[O-].C[N+](C)(C)CCO [choline butanoate]	833.1 ± 63 mPa·s	1049.5 ± 1 kg/m3	630.6 ± 43 mPa·s	1046.5 ± 1 kg/m3	459.3 ± 28 mPa·s	1043.4 ± 1 kg/m3	344.2 ± 18 mPa·s	1040.5 ± 1 kg/m3	254 ± 11 mPa·s	1037.6 ± 1 kg/m3	193.8 ± 7.2 mPa·s	1034.6 ± 1 kg/m3	150.2 ± 4.5 mPa·s	1031.9 ± 1 kg/m3	118.2 ± 2.8 mPa·s	1029 ± 1 kg/m3	94.3 ± 1.7 mPa·s	1026.2 ± 1 kg/m3	76.1 ± 1 mPa·s	1023.4 ± 1 kg/m3	viscosity ([1]; 343.15 K): 62.2 ± 0.6 mPa·s; mass density ([1]; 343.15 K): 1020.5 ± 1 kg/m3; viscosity ([1]; 348.15 K): 51.4 ± 0.4 mPa·s; mass density ([1]; 348.15 K): 1017.2 ± 1 kg/m3; viscosity ([1]; 353.15 K): 42.9 ± 0.4 mPa·s; mass density ([1]; 353.15 K): 1014.5 ± 1 kg/m3; refractive index ([2]; 293.15 K): 1.4716 ± 0.0004; refractive index ([2]; 298.15 K): 1.47 ± 0.0004; refractive index ([2]; 303.15 K): 1.4683 ± 0.0004; refractive index ([2]; 308.15 K): 1.4667 ± 0.0004; refractive index ([2]; 313.15 K): 1.465 ± 0.0004; refractive index ([2]; 318.15 K): 1.4633 ± 0.0004; refractive index ([2]; 323.15 K): 1.4617 ± 0.0004; refractive index ([2]; 328.15 K): 1.46 ± 0.0004; refractive index ([2]; 333.15 K): 1.4585 ± 0.0004
